The text below walks through data of ChEMBL document CHEMBL1145686, “Three new oleanane saponins from Zanha africana” (1997).

For this experiment, the system named is Mus musculus. Kind of experiment: Antiinflammatory activity against TPA-induced ear edema in mouse assessed per ear. In kind it is functional.

In turn, `C[C@@H]1O[C@@H](O[C@H]2[C@H](OC(=O)[C@]34CCC(C)(C)C[C@H]3C3=CC[C@@H]5[C@@]6(C)C[C@H](O)[C@H](O[C@@H]7O[C@H](C(=O)O)[C@@H](O)[C@H](O)[C@H]7O)[C@@](C)(C(=O)O)[C@@H]6CC[C@@]5(C)[C@]3(C)C[C@H]4O)O[C@@H](C)[C@H](O)[C@H]2O)[C@H](O)[C@H](O)[C@H]1O` [ZANHASAPONIN A] came in with an ID50 of 14 µg. Molecule `C[C@@H]1O[C@@H](O[C@H]2[C@H](OC(=O)[C@]34CCC(C)(C)C[C@H]3C3=CC[C@@H]5[C@@]6(C)C[C@H](O)[C@H](O[C@@H]7O[C@H](C(=O)O)[C@@H](O)[C@H](O)[C@H]7O)[C@@](C)(C(=O)O)[C@@H]6CC[C@@]5(C)[C@]3(C)C[C@H]4O)O[C@@H](C)[C@H](O)[C@H]2O)[C@H](O[C@@H]2OC[C@@H](O)[C@H](O)[C@H]2O)[C@H](O)[C@H]1O` [ZANHASAPONIN B] returned an ID50 of 20 µg. Under `C[C@@H]1O[C@@H](O[C@H]2[C@H](OC(=O)[C@]34CCC(C)(C)C[C@H]3C3=CC[C@@H]5[C@@]6(C)C[C@H](O)[C@H](O[C@@H]7O[C@H](C(=O)O)[C@@H](O)[C@H](O)[C@H]7O)[C@@](C)(C(=O)O)[C@@H]6CC[C@@]5(C)[C@]3(C)C[C@H]4O)O[C@@H](C)[C@H](O)[C@H]2O)[C@H](O[C@@H]2OC[C@@H](O)[C@H](O[C@@H]3OC[C@@H](O)[C@H](O)[C@H]3O)[C@H]2O)[C@H](O)[C@H]1O` [ZANHASAPONIN C] stands 79 µg.
